Structures can show the parent of a compound that is named as a salt. Where only a bound is given, the exact number is not on record here.

In experiment [1] the target is T1, NLRP3 (Homo sapiens, UniProt Q96P20). In words: Human whole blood IL-1β release assay (LPS + nigericin, AlphaLisa). The experiment is classed as cell-based. On the set-up: Plate out 80 μl of whole blood containing 1 μg/ml of LPS; from tissue; host or cells: human whole blood from healthy donors. Here is the method: For systemic delivery, the ability to inhibit NLRP3 when the compounds are present within the bloodstream is of great importance. For this reason, the NLRP3 inhibitory activity of a number of compounds in human whole blood was investigated in accordance with the following protocol.
Human whole blood in Li-heparin tubes was obtained from healthy donors from a volunteer donor panel. • 1. Plate out 80 μl of whole blood containing 1 μg/ml of LPS in 96-well, clear bottom cell culture plate (Corning #3585) • 2. Add 10 μl compound (8 points half-log dilution with 10 μM top dose) or vehicle (DMSO 0.1% FAC) to the appropriate wells • 3. Incubate for 3 hrs at 37° C., 5% CO2 • 4. Add 10 μl nigericin (Sigma #N7143) (10 μM FAC) to all wells • 5. Incubate for 1 hr at 37° C., 5% CO2 • 6. At the end of the incubation period, spin plates at 300×g for 5 mins to pellet cells and remove 20 μl of supernatant and add to 96-well v-bottom plates for IL-1β analysis (note: these plates containing the supernatants can be stored at −80° C. to be analysed at a later date) • 7. IL-1β was measured according to the manufacturer protocol (Perkin Elmer-AlphaLisa IL-1 Kit AL220F-5000) • 8. IC50 data is fitted to a non-linear regression equation (log inhibitor vs response-variable slope 4-parameters)

Experiment [2] deals with T1, NLRP3. In words: THP-1 cells pyroptosis assay (LPS + nigericin, resazurin read-out). The experiment is classed as cell-based. On the set-up: Seed THP-1 cells (25,000 cells/well) containing 1.0 μg/ml LPS; host or cells: THP-1 cells. Put shortly:
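THP-1 cells (25,000/well) primed with 1 μg/ml LPS in serum-free RPMI, treated 3 h with compound (8-point half-log series, 10 μM top, 0.1% DMSO), then 5 μM nigericin for 1 h at 37 °C. Viability read by 100 μM resazurin fluorescence after 1-2 h; IC50 from 4-parameter fit.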

Setting [3] is: human whole blood, 1 μg/ml LPS, 10 μM nigericin, IL-1β release, read-out: HWB IC50.
The mark [4] stands for this setting: THP-1 cells, 1 μg/ml LPS, 5 μM nigericin, NLRP3 inhibitory activity, read-out: THP IC50.

T1 sequence (Q96P20 whole entry): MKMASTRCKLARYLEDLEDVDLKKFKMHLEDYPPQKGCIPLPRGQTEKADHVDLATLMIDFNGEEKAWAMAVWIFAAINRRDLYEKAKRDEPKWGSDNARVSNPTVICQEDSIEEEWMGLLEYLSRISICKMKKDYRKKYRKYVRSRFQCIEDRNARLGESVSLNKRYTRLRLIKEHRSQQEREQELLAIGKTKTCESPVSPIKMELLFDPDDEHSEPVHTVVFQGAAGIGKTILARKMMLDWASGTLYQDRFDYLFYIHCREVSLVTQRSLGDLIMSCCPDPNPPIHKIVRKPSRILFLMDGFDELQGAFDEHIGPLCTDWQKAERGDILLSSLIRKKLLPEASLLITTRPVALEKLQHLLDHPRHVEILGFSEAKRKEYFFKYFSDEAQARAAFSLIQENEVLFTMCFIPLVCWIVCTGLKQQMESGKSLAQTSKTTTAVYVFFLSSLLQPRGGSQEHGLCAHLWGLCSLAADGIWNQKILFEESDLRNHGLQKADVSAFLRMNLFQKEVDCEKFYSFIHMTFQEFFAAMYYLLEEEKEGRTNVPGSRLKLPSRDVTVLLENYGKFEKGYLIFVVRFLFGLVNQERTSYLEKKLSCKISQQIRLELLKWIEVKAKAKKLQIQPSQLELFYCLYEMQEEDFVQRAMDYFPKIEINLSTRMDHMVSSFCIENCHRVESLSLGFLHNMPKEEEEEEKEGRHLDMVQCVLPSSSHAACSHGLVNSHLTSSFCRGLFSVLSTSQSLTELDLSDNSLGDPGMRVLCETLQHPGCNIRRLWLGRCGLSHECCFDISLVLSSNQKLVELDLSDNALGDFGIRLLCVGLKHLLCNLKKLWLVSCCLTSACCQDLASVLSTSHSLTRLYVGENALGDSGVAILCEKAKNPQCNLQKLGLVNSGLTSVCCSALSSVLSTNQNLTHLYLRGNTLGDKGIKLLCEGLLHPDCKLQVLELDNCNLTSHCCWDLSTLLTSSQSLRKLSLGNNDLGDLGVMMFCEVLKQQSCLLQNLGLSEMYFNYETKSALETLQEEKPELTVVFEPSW

By IC50 is commonly meant the point on the concentration scale where inhibition reaches its midpoint. In the case of `CN1CCCC(NS(=O)(=O)NC(=O)Nc2c3c(cc4c2CCC4)CCC3)C1` (stereo not drawn) [Example 52, 3-(N-(1-Methylpiperidin-3-yl)sulfamoyl)-1-(1,2,3,5,6,7-hexahydro-s-indacen-4-yl)urea, potassium salt], the IC50 in experiment [1] (setting [3]) and in experiment [2] (setting [4]) was less than 500 nM in each case.

On to `CN(C)CCN(CCCc1ccccc1)S(=O)(=O)NC(=O)Nc1c2c(cc3c1CCC3)CCC2` [Example 58, 3-(N-(2-(Dimethylamino)ethyl)-N-(3-phenylpropyl)sulfamoyl)-1-(1,2,3,5,6,7-hexahydro-s-indacen-4-yl)urea, potassium salt], for which the IC50 in experiment [1] (setting [3]) was less than 5000 nM; in experiment [2] (setting [4]), less than 500 nM.

As for `CCN1C2CCC1CN(S(=O)(=O)NC(=O)Nc1c3c(cc4c1CCC4)CCC3)C2` [Example 61, 8-Ethyl-N-((1,2,3,5,6,7-hexahydro-s-indacen-4-yl)carbamoyl)-3,8-diazabicyclo[3.2.1]octane-3-sulfonamide, potassium salt], the IC50 in experiment [1] (setting [3]) and in experiment [2] (setting [4]) was less than 500 nM in each case.

As to `CCN1CC2CCC(C1)N2S(=O)(=O)NC(=O)Nc1c2c(cc3c1CCC3)CCC2` [Example 62, 3-Ethyl-N-((1,2,3,5,6,7-hexahydro-s-indacen-4-yl)carbamoyl)-3,8-diazabicyclo[3.2.1]octane-8-sulfonamide, potassium salt], the values for the IC50 in experiment [1] (setting [3]) and in experiment [2] (setting [4]) were less than 1000 nM and less than 500 nM, respectively.

With `CC(C)n1cc(NS(=O)(=O)NC(=O)Nc2c3c(cc4c2CCC4)CCC3)cn1` [Example 65, 3-(N-(1-Isopropyl-1H-pyrazol-4-yl)sulfamoyl)-1-(1,2,3,5,6,7-hexahydro-s-indacen-4-yl)urea, potassium salt], the IC50 in experiment [1] (setting [3]) is less than 5000 nM; in experiment [2] (setting [4]), less than 500 nM.

As to `CN(C)CC1CCN(S(=O)(=O)NC(=O)Nc2c3c(cc4c2CCC4)CCC3)C1` (stereo not drawn) [Example 68, potassium salt], the IC50 in experiment [1] (setting [3]) was less than 1000 nM; in experiment [2] (setting [4]), less than 500 nM.

With `CC(C)(C)NCCNS(=O)(=O)NC(=O)Nc1c2c(cc3c1CCC3)CCC2` [Example 71, 3-(N-(2-(tert-Butylamino)ethyl)sulfamoyl)-1-(1,2,3,5,6,7-hexahydro-s-indacen-4-yl)urea, potassium salt], the IC50 is less than 1000 nM in experiment [1] (setting [3]) and less than 500 nM in experiment [2] (setting [4]).

Turning to `O=C(Nc1c2c(cc3c1CCC3)CCC2)NS(=O)(=O)N1CCC(N2CCCC2)C1` (stereo not drawn) [Example 72, N-((1,2,3,5,6,7-Hexahydro-s-indacen-4-yl)carbamoyl)-[1,3′-bipyrrolidine]-1′-sulfonamide, potassium salt], the IC50 in experiment [1] (setting [3]) and in experiment [2] (setting [4]) was less than 500 nM each time.

`O=C(Nc1c2c(cc3c1CCC3)CCC2)NS(=O)(=O)N1CCC(N2CCC2)C1` (stereo not drawn) [Example 73, 3-(Azetidin-1-yl)-N-((1,2,3,5,6,7-hexahydro-s-indacen-4-yl)carbamoyl)pyrrolidine-1-sulfonamide, potassium salt]: the IC50 is less than 5000 nM in experiment [1] (setting [3]) and less than 1000 nM in experiment [2] (setting [4]).

Turning to `O=C(Nc1c2c(cc3c1CCC3)CCC2)NS(=O)(=O)N1CC2CCC(C1)N2C1CC1` [Example 75, 8-Cyclopropyl-N-((1,2,3,5,6,7-hexahydro-s-indacen-4-yl)carbamoyl)-3,8-diazabicyclo[3.2.1]octane-3-sulfonamide, potassium salt], the IC50 in experiment [1] was less than 5000 nM; in experiment [2], less than 500 nM.

For `CN1CC[C@H](N(C)S(=O)(=O)NC(=O)Nc2c3c(cc4c2CCC4)CCC3)C1` [Example 76, 3-((S)—N-Methyl-N-(1-methylpyrrolidin-3-yl)sulfamoyl)-1-(1,2,3,5,6,7-hexahydro-s-indacen-4-yl)urea, potassium salt], the IC50 in experiment [1] (setting [3]) and in experiment [2] (setting [4]) was less than 500 nM in each case.

`CN1CCCC1CN(C)S(=O)(=O)NC(=O)Nc1c2c(cc3c1CCC3)CCC2` (stereo not drawn) [Example 80, 3-(N-Methyl-N-((1-methylpyrrolidin-2-yl)methyl)sulfamoyl)-1-(1,2,3,5,6,7-hexahydro-s-indacen-4-yl)urea, potassium salt]: the IC50 in experiment [1] (setting [3]) and in experiment [2] (setting [4]) was less than 500 nM throughout.

The values above are taken from patent US12187702B2, “Sulfonamideurea compounds” (Inflazome Limited, priority 2018, dated 2025).
